Publication PMC12081876, “Identification of PTGR2 inhibitors as a new therapeutic strategy for diabetes and obesity” (EMBO Molecular Medicine, 2025)
Several values for one entry are separate records, joined by “and”; a condition that tells them apart may be missing. Equal values may be shown once.

Legend:
[1] = target: T1, murine PPARγ (mPPARγ) (Mus musculus, UniProt P37238); assay: Gal4-PPARγ/UAS-LUC reporter assay in HEK293T cells; assay type: cell-based; set-up: key to Gal4-PPARγ/UAS-LUC reporter activity, Fig 1B replicates: luciferase activity normalized to TK reporter signal
T1 construct: host or cells: HEK293T
Description: Briefly, HEK293T cells were seeded in 24-well plates at 1 × 10^5 cells/well. […] Luciferase activity was measured using Luc-Pair™ Duo-Luciferase HS Assay Kit (cat. no. LF600, Promega) and normalized with the TK reporter signal.

[2] = test system: PPARγ lysine acetylation; assay: Cell-based PPARγ acetylation assay; set-up: species or system mouse; details: cultured adipocytes
Description: One day after achieving 100% confluence, 3T3-L1 cells were induced differentiation with 0.5 mM IBMX, 1 µm dexamethasone and 10 μg/mL insulin in DMEM containing 10% FBS for 2 days and maintained differentiation in DMEM supplemented with 10 μg/mL insulin and 10% FBS for 6 days. The medium was changed every 2 days. […] Cells were harvested and lysed in RIPA buffer supplemented with 1X cOmplete™, EDTA-free Protease Inhibitor Cocktail (cat. no. 04693132001, Roche) and 1X PhosSTOP™ (cat. no. 4906845001, Roche). The protein concentrations of cell lysates were measured by Bradford reagent (cat. no. BP500-0006, Bio-Rad). The protein samples were performed immunoprecipitation with magnetic beads (Protein G Mag Sepharose™, Cytiva). Briefly, 200 μg of protein samples were incubated in 500 μl of PBS buffer containing 1 μg of anti-PPARγ antibody or 1 μg of anti-rabbit IgG antibody with gentle rotation at 4 °C overnight. On the next day, PBS-washed beads were incubated with overnight mixture of protein sample and antibody at 4 °C for 1 h with gentle rotation. Then the beads were washed three times with 1000 μl of PBS and harvested with centrifugation at 4 °C and 10,000 × g for 5 min. […] Acetylation level of PPARγ was analyzed using Image J software and normalized against PPARγ.

[3] = test system: murine PPARγ Ser273 phosphorylation; assay: TNFα-induced PPARγ Ser273 phosphorylation in 3T3-L1 adipocytes; assay type: cell-based; details: cultured murine adipocytes
Description: For cell-based assay, 3T3-L1 cells were induced differentiation one day after achieving 100% confluence with 0.5 mM IBMX, 1 µm dexamethasone and 10 μg/mL insulin in DMEM containing 10% FBS for 2 days and maintained differentiation in DMEM supplemented with 10 μg/mL insulin and 10% FBS for 4 days. The medium was changed every 2 days. […] Then TNFα was added to induce PPARγ phosphorylation in a concentration of 50 ng/ml for 15 min. Cells were harvested and lysed in RIPA buffer supplemented with 1X cOmplete™, EDTA-free Protease Inhibitor Cocktail (cat. no. 04693132001, Roche) and 1X PhosSTOP™ (cat. no. 4906845001, Roche).
The protein concentrations of tissue lysates were measured by Bradford reagent (cat. no. BP500-0006, Bio-Rad). The protein samples were mixed with 6X sample buffer (0.3 M Tris-HCl, pH 6.8, 0.6 M DTT, 12% SDS, 0.6% Bromophenel blue and 60% glycerol) and heated at 70 °C for 5 min. 30 μg of each sample were separated by 10% SDS-PAGE gel and were transferred to PVDF membrane. The membrane was blocked by 3% BSA in Tris-buffered saline containing 0.1% Tween-20 for 1 h at room temperature and incubated with primary antibody at 4 °C overnight. […] Protein expression of phospho-PPARγ was analyzed using ImageJ software and normalized against PPARγ and GAPDH.

[4] = target: hPTGR2 (Homo sapiens, UniProt Q8N8N7); assay: Conversion of 15-keto-PGE2 by recombinant human PTGR2 protein; assay type: biochemical; set-up: made in house; details: incubated with recombinant human PTGR2 protein
[5] = target: T2, mPPARγ (Mus musculus, UniProt P37238); assay: Co-immunoprecipitation in mouse white adipose tissue; assay type: binding; details: epididymal white adipose tissue of Ptgr2+/+ and Ptgr2−/− mice
T2 construct: from tissue; host or cells: perigonadal (epididymal) white adipose tissue of Ptgr2+/+ and Ptgr2-/- mice
Excerpt: Lysates from the perigonadal fat of Ptgr2^+/+ and Ptgr2^−/− mice were immunoprecipitated with a mouse anti-15-keto-PGE2-cysteine-BSA antibody (1:1000) and then immunoblotted with a rat anti-PPARγ antibody (1:1000, cat. no. sc-7273, Santa Cruz Biotechnology).

T1 sequence (P37238 with tags, fused parts or gaps limits assumed): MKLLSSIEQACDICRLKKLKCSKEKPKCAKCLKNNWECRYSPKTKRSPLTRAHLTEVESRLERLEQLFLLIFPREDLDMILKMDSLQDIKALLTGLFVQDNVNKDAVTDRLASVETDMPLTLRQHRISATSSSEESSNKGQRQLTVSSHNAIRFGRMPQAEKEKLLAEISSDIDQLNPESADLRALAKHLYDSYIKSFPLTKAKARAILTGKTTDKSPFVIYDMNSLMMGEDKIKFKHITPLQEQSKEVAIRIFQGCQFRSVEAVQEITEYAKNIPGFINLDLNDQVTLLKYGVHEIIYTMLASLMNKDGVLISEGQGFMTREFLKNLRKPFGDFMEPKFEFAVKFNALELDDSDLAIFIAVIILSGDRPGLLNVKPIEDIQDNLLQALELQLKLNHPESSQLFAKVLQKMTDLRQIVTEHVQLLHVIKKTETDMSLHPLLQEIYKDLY
T2 sequence (P37238 whole entry): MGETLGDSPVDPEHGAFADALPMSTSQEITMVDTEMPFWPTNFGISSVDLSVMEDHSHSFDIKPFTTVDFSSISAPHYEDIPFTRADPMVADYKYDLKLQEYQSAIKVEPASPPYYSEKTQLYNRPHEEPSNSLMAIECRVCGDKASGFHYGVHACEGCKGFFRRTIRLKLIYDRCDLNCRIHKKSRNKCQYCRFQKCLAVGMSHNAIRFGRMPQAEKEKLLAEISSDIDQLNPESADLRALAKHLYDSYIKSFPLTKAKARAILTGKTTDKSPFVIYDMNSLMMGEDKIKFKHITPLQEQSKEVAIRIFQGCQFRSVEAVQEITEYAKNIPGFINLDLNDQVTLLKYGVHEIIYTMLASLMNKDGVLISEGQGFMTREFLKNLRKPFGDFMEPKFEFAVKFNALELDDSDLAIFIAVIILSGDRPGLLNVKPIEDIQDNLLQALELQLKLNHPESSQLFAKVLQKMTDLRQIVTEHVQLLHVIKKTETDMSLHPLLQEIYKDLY
Chain of hPTGR2 (Q8N8N7 whole entry): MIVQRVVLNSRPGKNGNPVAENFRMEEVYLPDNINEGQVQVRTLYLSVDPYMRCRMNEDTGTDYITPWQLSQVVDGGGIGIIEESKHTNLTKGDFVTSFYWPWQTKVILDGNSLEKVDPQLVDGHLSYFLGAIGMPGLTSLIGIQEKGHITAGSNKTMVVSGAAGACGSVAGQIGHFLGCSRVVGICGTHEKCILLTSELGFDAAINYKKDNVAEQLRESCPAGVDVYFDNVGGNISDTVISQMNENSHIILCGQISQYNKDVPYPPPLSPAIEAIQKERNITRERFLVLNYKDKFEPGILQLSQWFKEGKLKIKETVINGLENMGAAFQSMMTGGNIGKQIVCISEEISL

Compound: CCCCCC(=O)/C=C/[C@H]1[C@H](O)CC(=O)[C@@H]1C/C=C\CCCC(=O)O [15-keto-PGE2, 15-keto-prostaglandin E2]
- Gal4-PPARγ/UAS-LUC reporter activity, Fig 1B replicates ([1]; 15kPGE2 5μM): 2.161 and 2.101 and 1.961
- Gal4-PPARγ/UAS-LUC reporter activity, Fig 1B replicates ([1]; 15kPGE2 10μM): 2.283 and 3.108 and 3.049
- Gal4-PPARγ/UAS-LUC reporter activity, Fig 1B replicates ([1]; 15kPGE2 30μM): 5.273 and 6.22 and 5.349
- transactivation activity of PPARγ (Gal4-PPARγ/UAS-LUC reporter) ([1]; HEK293T cells): enhanced the transactivation activity of PPARγ in a dose-dependent manner
- acetylation of the PPARγ LBD [2]: no altered acetylation of the PPARγ LBD
- phosphorylation of PPARγ Ser273 [3]: dose-dependently reduced phosphorylation of Ser273
- 15-keto-PGE2 converted into 13,14-dihydro-15-keto-PGE2 [4]: 99.83%
- co-immunoprecipitation of mPPARγ with anti-15-keto-PGE2-cysteine-BSA antibody in fat tissue [5]: confirming the covalent binding of mPPARγ to 15-keto-PGE2
